Assay results from patent publication US12102705B2, “Peptides having inhibitory activity on muscarinic receptor M3” (AZIENDE CHIMICHE RIUNITE ANGELINI FRANCESCO—A.C.R.A.F. …, priority 2018, dated 2024).
Structures can show the parent of a compound that is named as a salt. Peptide text beside a SMILES is read from it. * marks the point of attachment. Palmitoyl = CCCCCCCCCCCCCCCC(=O)*; Myristoyl = CCCCCCCCCCCCCC(=O)*

How the values were obtained:
Type in all cases: cell-based
[1] = test system: human epidermal keratinocytes (HEKa); assay: MTT cell viability assay in keratinocytes; conditions: as TFA-salt, any concentration assessed; keratinocytes and fibroblasts
Procedure: This example evaluated the effects of the tested peptides on human epidermal keratinocytes and dermal fibroblasts cell viability. The 3-(4,5-dimethyl-2-thiazolyl)-2,5-diphenyl-2H-tetrazolium bromide (MTT) assay was used to that monitor cell proliferation and viability based on the capacity of the mitochondrial dehydrogenase enzyme to break and transform the tetrazolium rings of MTT.
Epidermal keratinocytes were seeded in a previously coated 96 well-plate at 50-60% confluence in 100 μL of supplemented medium. Dermal fibroblasts were seeded in a 96 well-plate at 70% confluence in 100 μL supplemented medium. 24 hours after seeding, medium was replaced by fresh supplemented medium containing peptides dissolved at concentration range between 0.1 and 100 μM or SDS as reference of 100% toxicity or DMSO as vehicle for peptides. All test substances were incubated for 24 hours at 37° C. and 5% CO2. Afterwards, medium was replaced by 0.5 mg/mL of MTT solution for 4 h in complete medium. Then, medium was carefully removed and 150 μL/well of DMSO were added to solubilize formazan crystals. Plate was protected from light, shaken for 60 seconds and optical density was measured at 570 nm with a reference filter of 620 nm. Toxicity values were calculated as percentages by considering maximum cytotoxic effect to SDS-treated cells and minimum as non-treated cells. Table G details effects of Seq. ID No 1, 5, 6 and 7 peptides on keratinocytes and fibroblasts as percentage of cell viability inhibition.

[2] = target: T1, human muscarinic receptor M3 (Homo sapiens, UniProt P20309); assay: Inhibition of M3-acetylcholine activation, Fluo-4 NW calcium fluorescence; conditions: 50 min incubation, 10 nM acetylcholine; for inhibition at 10 µM / inhibition at 50 µM / inhibition at 100 µM: 50 min
T1 construct: expressed in transfected cells; cultured in Ham's F-12 medium
Procedure: (§1) Epithelial stable cell line constitutively expressing human muscarinic receptor M3 was used to assess peptides activity. Cells were seeded in 96-well plates at 50% cell confluence in 100 μL of complete Ham's F-12 medium. After 24 hours, medium was removed and cells were incubated with 90 μL/well of a solution of the peptides of the invention at 100, 50 or 10 μM or DMSO as vehicle. Peptides were dissolved in Fluo-4 NW (Invitrogen) fluorescent calcium probe assay buffer containing Probenecid, following manufacturer's instructions for 50 min at 37° C. in a CO2 incubator. Afterwards, M3 activity was determined by reading the fluorescence in a FLUOstar Galaxy reader (BMG LabTechnologies) using 485 nm filter for excitation and 520 nm for emission, recording signal before and after M3 activation with 10 nM acetylcholine. Fluorescence measurements were normalized to acetylcholine maximum fluorescence signal in vehicle treated cells. Atropine (100 nM) was used as positive control for inhibition. Inhibition values of M3 activity were calculated as percentages by considering maximum fluorescence corresponding to acetylcholine-M3 activation and minimum as non-stimulated cells. Table D details inhibition values of M3 activity inhibition obtained for the peptides of invention.

[3] = target: T1, human muscarinic receptor M3; assay: Time-dependent inhibition of M3 activity, Fluo-4 NW calcium fluorescence; conditions: peptide 50 μM, read-out: % Inhibition hM3 receptor activity
Procedure: Peptides of invention were designed to target the intracellular region of M3. Therefore, minimum time required to detect inhibitory effect on M3 activity was evaluated. For this purpose, inhibitory effect of peptides Seq. […] Epithelial stable cell line constitutively expressing human muscarinic receptor M3 was used to assess peptides activity. Cells were seeded in 96-well plates at 50% cell confluence in 100 μL of complete Ham's F-12 medium. After 24 hours, medium was removed and cells were incubated with 90 μL/well of Fluo-4 NW (Invitrogen) fluorescent calcium probe assay buffer containing probenecid, following manufacturer's instructions at 37° C. in a CO2 incubator. Peptides (50 μM), vehicle and atropine were incubated either with the probe (1 hour pre-incubation) or during fluorescence reading (direct effect). Afterwards, M3 activity was recorded for 20 cycles and direct effect peptides were added on cycle 3 after baseline assessment. Acetylcholine was added on cycle 13. Therefore, direct effect of peptides was monitored for 25 minutes. Inhibition values of M3 activity were calculated as percentages by considering maximum fluorescence corresponding to vehicle or non-treated cells acetylcholine-M3 activation and minimum as non-stimulated cells. Table E details inhibition values of M3 activity inhibition obtained for the peptides of invention.

[4] = target: T1, human muscarinic receptor M3; assay: Dose-response inhibitory effect on M3 activity (IC50)
Procedure: as §1
Characterization of Seq. ID No. 1, 3-8 peptides efficiency was obtained by calculating half maximal inhibitory concentration (IC50). For this purpose, experimental procedure regarding cell culture and fluorescent calcium probe assay was followed as described on Example 2. Peptides were assessed at concentrations between 0.1 and 100 μM and incubated for 1 hour together with Fluo-4 NW probe. Afterwards, M3 activity was determined by reading the fluorescence in a FLUOstar Galaxy reader (BMG LabTechnologies) using 485 nm filter for excitation and 520 nm for emission, recording signal before and after M3 activation with acetylcholine. Fluorescence measurements were standardized with regard to the maximum fluorescence signal detected with acetylcholine stimulation in vehicle treated cells. Inhibition values of M3 activity were calculated as percentages by considering maximum fluorescence corresponding to acetylcholine-M3 activation and minimum as non-stimulated cells. Percentage inhibition data was fitted to a sigmoidal curve to obtain IC50. Table F details inhibition values for IC50

[5] = 25 min, 25 minutes (direct effect)
[6] = 60 minutes (1 hour pre-incubation)

T1 sequence (P20309 whole entry): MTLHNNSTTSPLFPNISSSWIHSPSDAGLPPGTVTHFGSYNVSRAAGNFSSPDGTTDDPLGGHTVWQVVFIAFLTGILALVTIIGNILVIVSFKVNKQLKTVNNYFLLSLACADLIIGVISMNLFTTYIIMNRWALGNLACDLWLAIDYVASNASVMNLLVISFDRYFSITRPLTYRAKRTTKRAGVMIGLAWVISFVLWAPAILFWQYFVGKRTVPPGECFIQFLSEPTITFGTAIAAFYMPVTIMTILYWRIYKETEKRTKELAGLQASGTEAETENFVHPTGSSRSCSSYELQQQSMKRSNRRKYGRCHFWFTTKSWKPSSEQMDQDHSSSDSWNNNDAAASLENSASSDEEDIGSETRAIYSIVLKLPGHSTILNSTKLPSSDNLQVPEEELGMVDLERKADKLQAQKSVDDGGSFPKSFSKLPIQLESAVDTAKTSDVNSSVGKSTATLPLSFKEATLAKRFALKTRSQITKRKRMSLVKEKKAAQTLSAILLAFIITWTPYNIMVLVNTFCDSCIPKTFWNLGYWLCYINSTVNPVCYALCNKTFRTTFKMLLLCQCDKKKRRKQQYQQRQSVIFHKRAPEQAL

| Compound | inhibition at 10 µM ([2]; peptide 10 μM) | inhibition at 50 µM ([2]; peptide 50 μM) | inhibition at 100 µM ([2]; peptide 100 μM) | inhibition at 50 µM [3, 5] | inhibition at 50 µM [3, 6] | IC50 [4] | % M3 inhibition ([2]; peptide 10 μM) | other results |
| --- | --- | --- | --- | --- | --- | --- | --- | --- |
| CCCCCCCCCCCCCCCC(=O)N[C@@H](Cc1c[nH]c2ccccc12)C(=O)N[C@@H](CCSC)C(=O)N[C@@H](CCCNC(=N)N)C(=O)N[C@@H](CC(C)C)C(N)=O [Seq. ID No. 1 Palmitoyl (TFA salt)] (Palmitoyl-WMRL-NH2) | – | – | – | – | – | – | – | effect on cell proliferation [1]: did not affect cell proliferation |
| CCCCCCCCCCCCCCCC(=O)N[C@@H](Cc1c[nH]c2ccccc12)C(=O)N[C@@H](CCSC)C(=O)N[C@@H](CCCNC(=N)N)C(=O)N[C@@H](CC(C)C)C(N)=O [Seq. ID No. 1 Palmitoyl] (Palmitoyl-WMRL-NH2) | 15.4% | 70.9% | 95.6% | 25.1% | 69.5% | 38.3 µM | – | – |
| CCCCCCCCCCCCCCCC(=O)N[C@@H](Cc1c[nH]c2ccccc12)C(=O)N[C@@H](CCSC)C(=O)N[C@@H](CCCNC(=N)N)C(=O)N[C@@H](CC(C)C)C(=O)N[C@@H](CCCCN)C(=O)N[C@@H](C)C(N)=O [Seq. ID No. 3 Palmitoyl] (Palmitoyl-WMRLKA-NH2) | 41% | 73.7% | 75.7% | 16.4% | 73% | 12.7 µM | – | – |
| CCCCCCCCCCCCCCCC(=O)N[C@@H](Cc1c[nH]c2ccccc12)C(=O)N[C@@H](CCSC)C(=O)N[C@@H](CC(N)=O)C(=O)N[C@@H](CC(C)C)C(=O)N[C@@H](CCCCN)C(=O)N[C@H](C(N)=O)[C@@H](C)O [Seq. ID No. 4 Palmitoyl] (Palmitoyl-WMNLKT-NH2) | 35.3% | 59.6% | 60.6% | 11.5% | 69.1% | 8 µM | – | – |
| CCCCCCCCCCCCCCCC(=O)N[C@@H](Cc1c[nH]c2ccccc12)C(=O)N[C@@H](CCSC)C(=O)N[C@@H](Cc1ccccc1)C(=O)N[C@@H](CC(C)C)C(=O)N[C@@H](CCCCN)C(N)=O [Seq. ID No. 5 Palmitoyl (TFA salt)] (Palmitoyl-WMFLK-NH2) | – | – | – | – | – | – | – | effect on cell proliferation [1]: did not affect cell proliferation |
| CCCCCCCCCCCCCCCC(=O)N[C@@H](Cc1c[nH]c2ccccc12)C(=O)N[C@@H](CCSC)C(=O)N[C@@H](Cc1ccccc1)C(=O)N[C@@H](CC(C)C)C(=O)N[C@@H](CCCCN)C(N)=O [Seq. ID No. 5 Palmitoyl] (Palmitoyl-WMFLK-NH2) | 0% | 45.7% | 80.6% | -7.1% | 84.4% | 61.1 µM | – | – |
| CCCCCCCCCCCCCC(=O)N[C@@H](CCCNC(=N)N)C(=O)N[C@@H](CCSC)C(=O)N[C@@H](Cc1ccc(O)cc1)C(=O)N[C@@H](CCCCN)C(=O)N[C@@H](CCSC)C(=O)N[C@@H](CCSC)C(=O)N[C@@H](C)C(=O)NCC(=O)N[C@@H](CCSC)C(=O)N[C@@H](Cc1ccc(O)cc1)C(=O)N[C@@H](CC(C)C)C(=O)N[C@@H](CCCNC(=N)N)C(N)=O [Seq. ID No. 6 Myristoyl] (Myristoyl-RMYKMMAGMYLR-NH2) | 14.8% | 56.4% | 92.1% | -20.2% | 54.7% | 55.2 µM | – | – |
| CCCCCCCCCCCCCC(=O)N[C@@H](CCCNC(=N)N)C(=O)N[C@H](C(=O)N[C@@H](CCSC)C(=O)N[C@@H](Cc1ccc(O)cc1)C(=O)N[C@@H](CCCCN)C(=O)N[C@@H](CCSC)C(=O)N[C@@H](CC(N)=O)C(=O)N[C@@H](CCCCN)C(=O)N[C@@H](CCCNC(=N)N)C(=O)N[C@@H](CC(=O)O)C(=O)N[C@@H](Cc1ccc(O)cc1)C(N)=O)C(C)C [Seq. ID No. 7 Myristoyl] (Myristoyl-RVMYKMNKRDY-NH2) | 15.9% | 54.8% | 92.4% | 16.4% | 82.7% | 55 µM | – | – |
| CCCCCCCCCCCCCC(=O)N[C@@H](CCCNC(=N)N)C(=O)N[C@H](C(=O)N[C@@H](CCSC)C(=O)N[C@@H](Cc1ccccc1)C(=O)N[C@@H](CCCCN)C(=O)N[C@@H](CCSC)C(=O)N[C@@H](Cc1ccccc1)C(=O)N[C@@H](CCCCN)C(=O)N[C@@H](CCCNC(=N)N)C(=O)N[C@@H](CC(=O)O)C(=O)N[C@@H](Cc1ccc(O)cc1)C(N)=O)C(C)C [Seq. ID No. 8 Myristoyl] (Myristoyl-RVMFKMFKRDY-NH2) | 42.5% | 71.7% | 93.8% | 6.1% | 87.1% | 9.8 µM | – | – |
| Ac-RMYKMMAGMYLR-NH2 [Seq. ID No. 6 Acetyl (TFA salt)] | – | – | – | – | – | – | – | effect on cell proliferation [1]: did not affect cell proliferation |
| Ac-RVMYKMNKRDY-NH2 [Seq. ID No. 7 Acetyl (TFA salt)] | – | – | – | – | – | – | – | effect on cell proliferation [1]: did not affect cell proliferation |
| Seq. ID No. 2 Acetyl: Nt-acetyl WMRLK, C terminus amidated (Ac-WMRLK-NH2) | – | – | – | – | – | – | 0.0% | % M3 inhibition ([2]; peptide 50 μM): 9.1%; % M3 inhibition ([2]; peptide 100 μM): 24.6% |
| Seq. ID No. 5 Acetyl: Nt-acetyl WMFLK, C terminus amidated (Ac-WMFLK-NH2) | – | – | – | – | – | – | 3.9% | % M3 inhibition ([2]; peptide 50 μM): 6.2%; % M3 inhibition ([2]; peptide 100 μM): 15.1% |
| Seq. ID No. 6 Acetyl: Nt-acetyl RMYKMMAGMYLR, C terminus amidated (Ac-RMYKMMAGMYLR-NH2) | – | – | – | – | – | – | 3.0% | % M3 inhibition ([2]; peptide 50 μM): 26.4%; % M3 inhibition ([2]; peptide 100 μM): 32.5% |
| Seq. ID No. 6 Palmitoyl: Nt-palmitoyl RMYKMMAGMYLR, C terminus amidated (Palmitoyl-RMYKMMAGMYLR-NH2) | – | – | – | – | – | – | 34.5% | – |
| Seq. ID No. 7 Acetyl: Nt-acetyl RVMYKMNKRDY, C terminus amidated (Ac-RVMYKMNKRDY-NH2) | – | – | – | – | – | – | 8.6% | % M3 inhibition ([2]; peptide 50 μM): 8.3%; % M3 inhibition ([2]; peptide 100 μM): 20.6% |
| Seq. ID No. 7 Palmitoyl: Nt-palmitoyl RVMYKMNKRDY, C terminus amidated (Palmitoyl-RVMYKMNKRDY-NH2) | – | – | – | – | – | – | 47.4% | – |
| Seq. ID No. 8 Acetyl: Nt-acetyl RVMFKMFKRDY, C terminus amidated (Ac-RVMFKMFKRDY-NH2) | – | – | – | – | – | – | 21.5% | % M3 inhibition ([2]; peptide 50 μM): 12.4%; % M3 inhibition ([2]; peptide 100 μM): 26.1% |
| Seq. ID No. 8 Palmitoyl: Nt-palmitoyl RVMFKMFKRDY, C terminus amidated (Palmitoyl-RVMFKMFKRDY-NH2) | – | – | – | – | – | – | 32.7% | – |
